For assay [1], the target named is recombinant human HDAC6 (Homo sapiens (Human), UniProt Q9UBN7). The experiment in a line: Enzymatic screening, HDAC6 inhibition (fluorogenic FdL_G substrate). It counts as biochemical. On the procedure:
(§1) For each test compound, 100× concentrated DMSO solutions at 8 doses were prepared and then diluted in assay buffer (25 mM Tris-HCl, pH 8, 130 mM NaCl, 0.05% Tween-20, 10% Glycerol) to obtain 5× concentrated solutions in relation to the final concentrations (typical final concentration range—6.4-200000 nM or 0.18-50000 nM, final DMSO content—1%). Then 10 μL solution of each test compound concentration were placed on a 96-well plate in triplicate and 15 μL of 3.33× concentrated enzyme solution in the assay buffer containing 3.33× concentrated BSA (final BSA concentration—2 mg/mL for HDAC4, HDAC5 and HDAC9 or 1 mg/mL for other isoforms) and in the case of HDAC6-3.33× concentrated TCEP (final TCEP concentration—200 μM) were added to each well. After a period of preincubation (incubation times and temperatures vary for different isoforms and are shown in table 1) 25 μL of solution containing the substrate were added. As substrate, FLUOR DE LYS® deacetylase substrate (Enzo Life Sciences, cat: BML-KI104, FdL), FLUOR DE LYS®-Green substrate (Enzo Life Sciences, cat: BML-KI572, FdL_G) or Boc-Lys(Tfa)-AMC (Bachem, cat: 4060676.005, Tfal)—2× concentrated solution in assay buffer were used. Following a reaction period (reaction times and temperatures vary for different isoforms and are reported in Table 1), 50 μL of the development solution consisting of concentrate FLUOR DE LYS® developer I (Enzo Life Sciences, ca: BML-KI105), diluted 200 times in buffer (50 mM Tris-HCl, pH 8, 137 mM NaCl, 2.7 mM KCl, 1 mM MgCl2) plus 2 μM TSA was added and, after 25 minutes at room temperature in the dark, using the Victor 1420 Multilabel Counter Perkin Elmer Wallac instrument, the fluorescence reading was carried out.

Assay [2] has as its target recombinant human HDAC1 (Homo sapiens (Human), UniProt Q13547). The experiment in a line: Enzymatic screening, HDAC1 inhibition (fluorogenic FdL_G substrate). It counts as biochemical. As to the method:
as §1

pIC50: −log10 of the molar value. Where only a bound is given, the exact number is not on record here.

recombinant human HDAC1, sequence (Q13547 whole entry): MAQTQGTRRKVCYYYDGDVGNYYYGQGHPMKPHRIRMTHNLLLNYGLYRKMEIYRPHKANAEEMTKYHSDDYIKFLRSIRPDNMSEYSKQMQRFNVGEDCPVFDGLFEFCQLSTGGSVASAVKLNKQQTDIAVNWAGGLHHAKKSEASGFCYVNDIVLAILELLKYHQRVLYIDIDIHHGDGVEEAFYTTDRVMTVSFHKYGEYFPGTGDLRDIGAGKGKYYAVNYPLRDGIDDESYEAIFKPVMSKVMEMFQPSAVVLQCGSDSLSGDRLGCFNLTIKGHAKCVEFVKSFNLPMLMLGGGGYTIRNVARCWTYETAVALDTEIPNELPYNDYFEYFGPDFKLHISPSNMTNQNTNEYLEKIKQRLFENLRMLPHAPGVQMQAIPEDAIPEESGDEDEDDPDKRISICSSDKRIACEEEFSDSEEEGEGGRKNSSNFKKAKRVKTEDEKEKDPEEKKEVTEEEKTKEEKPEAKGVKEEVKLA
recombinant human HDAC6, sequence (Q9UBN7 whole entry, canonical isoform): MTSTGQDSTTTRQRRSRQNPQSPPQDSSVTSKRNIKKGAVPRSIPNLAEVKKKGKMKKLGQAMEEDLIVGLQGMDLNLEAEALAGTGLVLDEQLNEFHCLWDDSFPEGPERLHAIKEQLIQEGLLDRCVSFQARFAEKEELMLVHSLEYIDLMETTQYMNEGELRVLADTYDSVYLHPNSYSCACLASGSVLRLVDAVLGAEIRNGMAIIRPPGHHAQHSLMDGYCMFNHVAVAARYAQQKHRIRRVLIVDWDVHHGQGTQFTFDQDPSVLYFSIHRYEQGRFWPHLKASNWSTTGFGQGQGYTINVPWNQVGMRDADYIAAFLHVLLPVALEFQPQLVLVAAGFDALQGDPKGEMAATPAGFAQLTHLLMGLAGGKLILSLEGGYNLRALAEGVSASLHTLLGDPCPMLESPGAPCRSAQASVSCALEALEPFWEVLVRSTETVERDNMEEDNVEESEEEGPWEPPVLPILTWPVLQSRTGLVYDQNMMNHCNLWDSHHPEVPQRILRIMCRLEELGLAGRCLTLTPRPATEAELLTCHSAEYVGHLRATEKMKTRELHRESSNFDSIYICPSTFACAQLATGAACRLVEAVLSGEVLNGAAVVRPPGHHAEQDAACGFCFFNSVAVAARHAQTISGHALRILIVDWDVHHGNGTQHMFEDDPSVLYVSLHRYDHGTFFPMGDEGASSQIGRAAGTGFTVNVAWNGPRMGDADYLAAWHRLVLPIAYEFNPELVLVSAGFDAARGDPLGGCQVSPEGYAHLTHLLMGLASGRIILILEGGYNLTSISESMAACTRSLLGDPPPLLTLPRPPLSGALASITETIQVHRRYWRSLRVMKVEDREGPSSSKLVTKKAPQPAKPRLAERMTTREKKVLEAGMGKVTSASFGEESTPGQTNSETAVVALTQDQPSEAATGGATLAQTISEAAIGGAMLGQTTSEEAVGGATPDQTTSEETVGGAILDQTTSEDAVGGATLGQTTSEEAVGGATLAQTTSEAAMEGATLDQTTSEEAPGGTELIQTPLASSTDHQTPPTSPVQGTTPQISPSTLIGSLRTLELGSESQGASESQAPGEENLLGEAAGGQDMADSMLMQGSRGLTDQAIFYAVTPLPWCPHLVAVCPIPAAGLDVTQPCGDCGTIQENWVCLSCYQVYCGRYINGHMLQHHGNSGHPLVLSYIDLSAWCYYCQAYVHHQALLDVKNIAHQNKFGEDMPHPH

For `NC(=O)c1cc(-c2nnn(Cc3ccc(-c4nnc(C(F)F)o4)cc3)n2)ccc1N` [compound 72, 2-amino-5-(2-(4-(5-(difluoromethyl)-1,3,4-oxadiazol-2-yl)benzyl)-2H-tetrazol-5-yl)benzamide], the pIC50 (in general, −log10 of the IC50, conventionally taken in molar units) in assay [1] is 7.52; in assay [2] it was under 3.70.

As to `FC(F)c1nnc(-c2ccc(Cc3cn(-c4ccc(NC5=NCCN5)cc4)nn3)cc2)o1` [compound 316, N-(4-(4-(4-(5-(difluoromethyl)-1,3,4-oxadiazol-2-yl)benzyl)-1H-1,2,3-triazol-1-yl)phenyl)-4,5-dihydro-1H-imidazol-2-amine], the pIC50 in assay [1] was 7.25; in assay [2], under 3.00.

Consider `CNc1ccc2cc(-c3nnn(Cc4ccc(-c5nnc(C(F)F)o5)c(F)c4)n3)ccc2n1` [compound 403, 6-[2-[[4-[5-(difluoromethyl)-1,3,4-oxadiazol-2-yl]-3-fluorophenyl]methyl]tetrazol-5-yl]-N-methylquinolin-2-amine], for which the pIC50 in assay [1] was 6.93; in assay [2], 3.00.

Turning to `CC1(C)C(=O)Nc2ccc(-c3cn(Cc4ccc(-c5nnc(C(F)F)o5)cn4)nn3)cc21` [compound 324, 5-[1-[[5-[5-(difluoromethyl)-1,3,4-oxadiazol-2-yl]pyridin-2-yl]methyl]triazol-4-yl]-3,3-dimethyl-1H-indol-2-one], the pIC50 in assay [1] was 7.74; in assay [2], under 3.00.

In the case of `O=C(Nc1cccc(-c2nc(Cc3c(F)cc(-c4nnc(C(F)F)o4)cc3F)no2)c1)N1CCOCC1` [Compd. 145, N-(3-(3-(4-(5-(difluoromethyl)-1,3,4-oxadiazol-2-yl)-2,6-difluorobenzyl)-1,2,4-oxadiazol-5-yl)phenyl)morpholine-4-carboxamide], the values for the pIC50 in assay [1] and in assay [2] were 7.21 and under 3.70, respectively.

With `Nc1ccc(-c2cn(C(CCN3CCCC3)c3ccc(-c4nnc(C(F)F)o4)cc3)nn2)cn1` (stereo not drawn) [compound 323, 5-(1-(1-(4-(5-(difluoromethyl)-1,3,4-oxadiazol-2-yl)phenyl)-3-(pyrrolidin-1-yl)propyl)-1H-1,2,3-triazol-4-yl)pyridin-2-amine], the pIC50 in assay [1] was 7.31; in assay [2], 4.32.

For the molecule `Nc1ccc(-c2cn(Cc3ncc(-c4nnc(C(F)F)o4)cn3)nn2)cn1` [compd. 125, 5-(1-((5-(5-(difluoromethyl)-1,3,4-oxadiazol-2-yl)pyrimidin-2-yl)methyl)-1H-1,2,3-triazol-4-yl)pyridin-2-amine], the negative logarithm of the IC50 (pIC50) is 7.32 in assay [1] and under 3.70 in assay [2].

With `O=C(Nc1cccc(-c2nnn(Cc3ccc(-c4nnc(C(F)F)o4)cc3)n2)c1)N1CCOCC1` [compound 71, N-(3-(2-(4-(5-(difluoromethyl)-1,3,4-oxadiazol-2-yl)benzyl)-2H-tetrazol-5-yl)phenyl)morpholine-4-carboxamide], the pIC50 is 7.52 in assay [1] and under 3.70 in assay [2].

`CCNc1cccc(-c2cn(Cc3c(F)cc(-c4nnc(C(F)F)o4)cc3F)nn2)c1` [compound 114, 3-(1-(4-(5-(difluoromethyl)-1,3,4-oxadiazol-2-yl)-2,6-difluorobenzyl)-1H-1,2,3-triazol-4-yl)-N-ethylaniline]: the pIC50 is 7.37 in assay [1] and under 3.70 in assay [2].

`Nc1ncnc2cc(-c3cn(Cc4ccc(-c5nnc(C(F)F)o5)c(F)c4)nn3)ccc12` [compound 418, 7-(1-(4-(5-(difluoromethyl)-1,3,4-oxadiazol-2-yl)-3-fluorobenzyl)-1H-1,2,3-triazol-4-yl)quinazolin-4-amine]: the pIC50 in assay [1] was 7.57.

On to `Nc1ncc2cc(-c3nnn(Cc4ccc(-c5nnc(C(F)F)o5)cc4)n3)ccc2n1` [compound 278, 6-(2-(4-(5-(difluoromethyl)-1,3,4-oxadiazol-2-yl)benzyl)-2H-tetrazol-5-yl)quinazolin-2-amine], for which, in assay [1], the pIC50 was 6.73.

For the molecule `Nc1ncnc2sc(-c3cn(Cc4ccc(-c5nnc(C(F)F)o5)c(F)c4)nn3)cc12` [compound 417, 6-[1-({4-[5-(difluoromethyl)-1,3,4-oxadiazol-2-yl]-3-fluorophenyl}methyl)-1H-1,2,3-triazol-4-yl]thieno[2,3-d]pyrimidin-4-amine], the pIC50 in assay [1] is 7.36.

For the molecule `Nc1cnc2ccc(-c3nnn(Cc4ccc(-c5nnc(C(F)F)o5)c(F)c4)n3)cc2c1` [compound 400, 6-[2-[[4-[5-(difluoromethyl)-1,3,4-oxadiazol-2-yl]-3-fluorophenyl]methyl]tetrazol-5-yl]quinolin-3-amine], the negative logarithm of the IC50 (pIC50) in assay [1] is 7.49.

With `CNc1ccc2cc(-c3nnn(Cc4cc(F)c(-c5nnc(C(F)F)o5)cc4F)n3)ccc2n1` [compound 504, 6-(2-(4-(5-(difluoromethyl)-1,3,4-oxadiazol-2-yl)-2,5-difluorobenzyl)-2H-tetrazol-5-yl)-N-methylquinolin-2-amine], the pIC50 in assay [1] was 7.00.

As to `Fc1cc(-c2nnc(C(F)F)o2)c(F)cc1Cn1nnc(-c2ccc3cnccc3c2)n1` [compound 428, 2-(2,5-difluoro-4-((5-(isoquinolin-6-yl)-2H-tetrazol-2-yl)methyl)phenyl)-5-(difluoromethyl)-1,3,4-oxadiazole], the pIC50 in assay [1] was 7.00.

`C[C@@H]1CN(c2ccc(-c3nnn(Cc4ccc(-c5nnc(C(F)F)o5)cc4)n3)cn2)CCN1` [compound 159, (R)-2-(difluoromethyl)-5-(4-((5-(6-(3-methylpiperazin-1-yl)pyridin-3-yl)-2H-tetrazol-2-yl)methyl)phenyl)-1,3,4-oxadiazole]: in assay [2], the pIC50 was under 3.70.

Take `Nc1ncnc2cc(-c3cn(Cc4cc(F)c(-c5nnc(C(F)F)o5)cc4F)nn3)ccc12` [compound 433, 7-(1-(4-(5-(difluoromethyl)-1,3,4-oxadiazol-2-yl)-2,5-difluorobenzyl)-1H-1,2,3-triazol-4-yl)quinazolin-4-amine]: the pIC50 in assay [1] is 7.64.

As for `FC(F)c1nnc(-c2ccc(Cn3nnc(-c4ccc(Cl)cc4Cl)n3)cc2)o1` [compound 263, 2-(4-((5-(2,4-dichlorophenyl)-2H-tetrazol-2-yl)methyl)phenyl)-5-(difluoromethyl)-1,3,4-oxadiazole], the negative-log IC50 (pIC50) in assay [1] was 6.31.

`Nc1ncnc2cc(-c3cn(Cc4ccc(-c5nnc(C(F)F)o5)cc4Cl)nn3)ccc12` [compound 434, 7-(1-(2-chloro-4-(5-(difluoromethyl)-1,3,4-oxadiazol-2-yl)benzyl)-1H-1,2,3-triazol-4-yl)quinazolin-4-amine]: the pIC50 in assay [1] is 7.23.

Regarding `C[C@H]1CN(c2ccc(-c3nnn(Cc4ccc(-c5nnc(C(F)F)o5)cc4)n3)cn2)CCN1` [compound 182, (S)-2-(difluoromethyl)-5-(4-((5-(6-(3-methylpiperazin-1-yl)pyridin-3-yl)-2H-tetrazol-2-yl)methyl)phenyl)-1,3,4-oxadiazole], the pIC50 in assay [2] was under 3.70.

On to `Fc1cc(-c2nnc(C(F)F)o2)ccc1Cn1nnc(-c2nccc3ccccc23)n1` [compound 431, 2-(difluoromethyl)-5-(3-fluoro-4-((5-(isoquinolin-1-yl)-2H-tetrazol-2-yl)methyl)phenyl)-1,3,4-oxadiazole], for which, in assay [1], the pIC50 was 6.45.

`CC(c1ccc(-c2nnc(C(F)F)o2)cc1)n1cc(-c2ccc(N)nc2)nn1` (stereo not drawn) [Compd. 158, 5-(1-(1-(4-(5-(difluoromethyl)-1,3,4-oxadiazol-2-yl)phenyl)ethyl)-1H-1,2,3-triazol-4-yl)pyridin-2-amine]: the pIC50 in assay [1] was 7.14.

Turning to `Nc1cnc2ccc(-c3nnn(Cc4cc(F)c(-c5nnc(C(F)F)o5)cc4F)n3)cc2c1` [compound 398, 6-[2-[[4-[5-(difluoromethyl)-1,3,4-oxadiazol-2-yl]-2,5-difluorophenyl]methyl]tetrazol-5-yl]quinolin-3-amine], in assay [1], the pIC50 is 7.31.

As to `Fc1cc(-c2nnc(C(F)F)o2)ccc1Cn1nnc(-c2ccc3cnccc3c2)n1` [compound 427, 2-(difluoromethyl)-5-(3-fluoro-4-((5-(isoquinolin-6-yl)-2H-tetrazol-2-yl)methyl)phenyl)-1,3,4-oxadiazole], the pIC50 in assay [1] is 7.14.

Regarding `COc1ccc(-c2nnn(Cc3ccc(-c4nnc(C(F)F)o4)cc3)n2)cc1` [compound 204, 2-(difluoromethyl)-5-(4-((5-(4-methoxyphenyl)-2H-tetrazol-2-yl)methyl)phenyl)-1,3,4-oxadiazole], the negative logarithm of the IC50 (pIC50) in assay [1] is 6.91.

`Nc1ncc2cc(-c3nnn(Cc4ccc(-c5nnc(C(F)F)o5)cc4F)n3)ccc2n1` [compound 424, 6-(2-(4-(5-(difluoromethyl)-1,3,4-oxadiazol-2-yl)-2-fluorobenzyl)-2H-tetrazol-5-yl)quinazolin-2-amine]: the pIC50 in assay [1] is 7.12.

As for `Nc1ncc2cc(-c3nnn(Cc4ccc(-c5nnc(C(F)F)o5)cc4Cl)n3)ccc2n1` [compound 425, 6-(2-(2-chloro-4-(5-(difluoromethyl)-1,3,4-oxadiazol-2-yl)benzyl)-2H-tetrazol-5-yl)quinazolin-2-amine], the pIC50 in assay [1] was 6.26.
